These results are taken from ChEMBL document CHEMBL5678818, “Discovery of potent SOS1 inhibitors that block RAS activation via disruption of the RAS-SOS1 interaction” (Proc Natl Acad Sci U S A, 2019).

Assay [1] has as its target T1, Serine/threonine-protein kinase LATS2 (Homo sapiens) (UniProt Q9NRM7).
T1 sequence (whole entry): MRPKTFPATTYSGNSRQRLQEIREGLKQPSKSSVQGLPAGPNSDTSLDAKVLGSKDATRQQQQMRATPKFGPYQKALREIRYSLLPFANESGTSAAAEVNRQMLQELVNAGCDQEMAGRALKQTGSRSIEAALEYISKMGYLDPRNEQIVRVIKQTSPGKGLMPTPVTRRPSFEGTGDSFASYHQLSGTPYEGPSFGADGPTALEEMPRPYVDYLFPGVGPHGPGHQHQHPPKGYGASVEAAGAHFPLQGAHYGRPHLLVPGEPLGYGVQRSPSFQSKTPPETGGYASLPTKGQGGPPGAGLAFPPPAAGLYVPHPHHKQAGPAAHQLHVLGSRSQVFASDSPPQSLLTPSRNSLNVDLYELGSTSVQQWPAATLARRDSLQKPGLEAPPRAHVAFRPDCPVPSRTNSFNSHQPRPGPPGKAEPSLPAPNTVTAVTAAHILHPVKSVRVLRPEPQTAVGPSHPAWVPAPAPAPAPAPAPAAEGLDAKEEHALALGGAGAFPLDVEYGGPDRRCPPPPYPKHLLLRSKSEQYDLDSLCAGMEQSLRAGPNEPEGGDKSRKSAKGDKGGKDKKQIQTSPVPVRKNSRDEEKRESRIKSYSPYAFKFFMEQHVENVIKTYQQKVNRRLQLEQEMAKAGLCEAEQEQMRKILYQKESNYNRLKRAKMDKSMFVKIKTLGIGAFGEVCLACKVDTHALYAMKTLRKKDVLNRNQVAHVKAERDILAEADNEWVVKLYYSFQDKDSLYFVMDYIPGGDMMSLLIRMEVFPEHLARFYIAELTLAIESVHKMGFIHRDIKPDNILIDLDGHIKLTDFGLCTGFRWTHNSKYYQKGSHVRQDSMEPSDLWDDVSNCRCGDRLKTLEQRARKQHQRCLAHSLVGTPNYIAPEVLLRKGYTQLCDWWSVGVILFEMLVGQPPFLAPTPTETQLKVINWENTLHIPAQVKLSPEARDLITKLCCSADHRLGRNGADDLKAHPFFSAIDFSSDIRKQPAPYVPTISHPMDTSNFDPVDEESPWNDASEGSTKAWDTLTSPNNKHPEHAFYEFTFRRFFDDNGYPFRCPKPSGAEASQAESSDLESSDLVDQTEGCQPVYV
The assay is described as follows: Inhibition of LATS2 (unknown origin) assessed as residual activity at 1000 nM by KINOMEscan analysis relative to control.

Assay [2] deals with Serine/threonine-protein kinase PAK 5 (Homo sapiens) (UniProt Q9P286). The assay is described as follows: Inhibition of PAK7 (unknown origin) assessed as residual activity at 1000 nM by KINOMEscan analysis relative to control.
Assay [3] addresses Mitogen-activated protein kinase kinase kinase 12 (Homo sapiens) (UniProt Q12852). The assay can be described thus: Inhibition of DLK (unknown origin) assessed as residual activity at 1000 nM by KINOMEscan analysis relative to control.
The target in assay [4] is Ribosomal protein S6 kinase beta-1 (Homo sapiens) (UniProt P23443). The assay can be described thus: Inhibition of S6K1 (unknown origin) assessed as residual activity at 1000 nM by KINOMEscan analysis relative to control.
The target of assay [5] is Cyclin-dependent kinase 9 (Homo sapiens) (UniProt P50750). The assay can be described thus: Inhibition of CDK9 (unknown origin) assessed as residual activity at 1000 nM by KINOMEscan analysis relative to control.
The target in assay [6] is Serine/threonine-protein kinase 38-like (Homo sapiens) (UniProt Q9Y2H1). The assay is described as follows: Inhibition of NDR2 (unknown origin) assessed as residual activity at 1000 nM by KINOMEscan analysis relative to control.
Assay [7] deals with T2, Serine/threonine-protein kinase NLK (Homo sapiens) (UniProt Q9UBE8).
T2 sequence (whole entry): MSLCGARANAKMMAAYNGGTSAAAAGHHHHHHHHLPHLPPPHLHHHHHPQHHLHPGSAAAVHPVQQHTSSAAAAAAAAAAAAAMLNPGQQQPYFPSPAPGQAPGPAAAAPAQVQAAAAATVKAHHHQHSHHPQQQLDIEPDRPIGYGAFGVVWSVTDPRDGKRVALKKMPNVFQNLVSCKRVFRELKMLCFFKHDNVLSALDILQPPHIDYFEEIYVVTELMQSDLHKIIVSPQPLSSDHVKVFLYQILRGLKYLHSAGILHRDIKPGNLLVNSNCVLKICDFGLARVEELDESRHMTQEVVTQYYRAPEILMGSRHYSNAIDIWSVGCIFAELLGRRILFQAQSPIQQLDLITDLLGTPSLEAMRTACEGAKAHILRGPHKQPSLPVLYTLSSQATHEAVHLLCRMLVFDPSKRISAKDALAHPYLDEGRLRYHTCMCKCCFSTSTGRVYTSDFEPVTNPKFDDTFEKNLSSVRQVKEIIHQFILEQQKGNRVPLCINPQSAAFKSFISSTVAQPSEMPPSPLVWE
The assay is described as follows: Inhibition of NLK (unknown origin) assessed as residual activity at 1000 nM by KINOMEscan analysis relative to control.

For assay [8], the target named is Tyrosine-protein kinase receptor UFO (Homo sapiens) (UniProt P30530). The assay is described as follows: Inhibition of AXL (unknown origin) assessed as residual activity at 1000 nM by KINOMEscan analysis relative to control.
The target in assay [9] is Interleukin-1 receptor-associated kinase 1 (Homo sapiens) (UniProt P51617). The assay can be described thus: Inhibition of IRAK1 (unknown origin) assessed as residual activity at 1000 nM by KINOMEscan analysis relative to control.
The target in assay [10] is RAC-alpha serine/threonine-protein kinase (Homo sapiens) (UniProt P31749). The assay can be described thus: Inhibition of AKT1 (unknown origin) assessed as residual activity at 1000 nM by KINOMEscan analysis relative to control.
Assay [11] concerns the target T3, Mitogen-activated protein kinase 12 (Homo sapiens) (UniProt P53778).
T3 sequence (whole entry): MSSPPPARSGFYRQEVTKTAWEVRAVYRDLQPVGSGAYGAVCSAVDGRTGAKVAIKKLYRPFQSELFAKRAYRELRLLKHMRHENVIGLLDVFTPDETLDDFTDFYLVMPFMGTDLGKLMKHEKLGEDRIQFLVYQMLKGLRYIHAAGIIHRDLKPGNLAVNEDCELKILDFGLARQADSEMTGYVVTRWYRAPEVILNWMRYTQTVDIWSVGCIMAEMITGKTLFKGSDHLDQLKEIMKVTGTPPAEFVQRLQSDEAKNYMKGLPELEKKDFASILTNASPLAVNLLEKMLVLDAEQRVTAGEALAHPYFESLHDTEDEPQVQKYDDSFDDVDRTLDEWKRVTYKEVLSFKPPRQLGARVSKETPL
The assay can be described thus: Inhibition of p38-gamma (unknown origin) assessed as residual activity at 1000 nM by KINOMEscan analysis relative to control.

Assay [12] has as its target Serine/threonine-protein kinase Nek6 (Homo sapiens) (UniProt Q9HC98). The assay is described as follows: Inhibition of NEK6 (unknown origin) assessed as residual activity at 1000 nM by KINOMEscan analysis relative to control.

Serine/threonine-protein kinase Nek6 (Homo sapiens), sequence (Q9HC98 whole entry): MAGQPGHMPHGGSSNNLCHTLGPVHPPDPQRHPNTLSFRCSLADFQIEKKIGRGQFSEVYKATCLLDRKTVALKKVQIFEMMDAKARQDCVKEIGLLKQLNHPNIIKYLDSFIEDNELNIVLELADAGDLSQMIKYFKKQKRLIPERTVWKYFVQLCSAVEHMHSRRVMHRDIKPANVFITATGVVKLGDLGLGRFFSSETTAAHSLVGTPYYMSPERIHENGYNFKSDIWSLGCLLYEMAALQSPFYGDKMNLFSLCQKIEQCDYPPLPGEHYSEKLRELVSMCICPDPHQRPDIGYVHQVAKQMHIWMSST
RAC-alpha serine/threonine-protein kinase (Homo sapiens), sequence (P31749 whole entry): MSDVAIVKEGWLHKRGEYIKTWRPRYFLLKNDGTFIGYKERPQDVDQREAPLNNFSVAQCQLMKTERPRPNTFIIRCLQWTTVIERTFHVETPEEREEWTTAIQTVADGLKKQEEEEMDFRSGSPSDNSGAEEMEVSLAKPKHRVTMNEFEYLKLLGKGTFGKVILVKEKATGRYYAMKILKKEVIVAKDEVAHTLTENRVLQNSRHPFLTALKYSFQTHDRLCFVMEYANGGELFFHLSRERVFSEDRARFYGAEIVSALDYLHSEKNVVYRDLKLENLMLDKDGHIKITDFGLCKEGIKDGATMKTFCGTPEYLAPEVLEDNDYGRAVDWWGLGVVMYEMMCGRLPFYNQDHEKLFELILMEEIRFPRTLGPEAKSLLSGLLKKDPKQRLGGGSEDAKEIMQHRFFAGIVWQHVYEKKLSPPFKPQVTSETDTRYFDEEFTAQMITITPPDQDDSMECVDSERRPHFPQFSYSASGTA
Serine/threonine-protein kinase 38-like (Homo sapiens), sequence (Q9Y2H1 2-464 limits assumed): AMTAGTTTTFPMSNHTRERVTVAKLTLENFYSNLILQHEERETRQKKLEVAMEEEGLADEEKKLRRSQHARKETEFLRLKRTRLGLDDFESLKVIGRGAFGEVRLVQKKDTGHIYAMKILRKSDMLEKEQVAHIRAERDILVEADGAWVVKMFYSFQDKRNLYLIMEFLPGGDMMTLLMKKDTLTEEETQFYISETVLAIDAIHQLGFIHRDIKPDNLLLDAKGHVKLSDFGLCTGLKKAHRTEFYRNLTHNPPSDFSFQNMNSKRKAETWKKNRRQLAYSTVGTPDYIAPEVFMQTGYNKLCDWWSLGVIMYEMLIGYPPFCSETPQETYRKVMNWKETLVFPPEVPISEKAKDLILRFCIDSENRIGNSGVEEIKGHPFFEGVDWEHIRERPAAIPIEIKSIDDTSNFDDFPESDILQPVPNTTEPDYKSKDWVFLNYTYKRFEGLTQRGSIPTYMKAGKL
Serine/threonine-protein kinase PAK 5 (Homo sapiens), sequence (Q9P286 whole entry, looked up): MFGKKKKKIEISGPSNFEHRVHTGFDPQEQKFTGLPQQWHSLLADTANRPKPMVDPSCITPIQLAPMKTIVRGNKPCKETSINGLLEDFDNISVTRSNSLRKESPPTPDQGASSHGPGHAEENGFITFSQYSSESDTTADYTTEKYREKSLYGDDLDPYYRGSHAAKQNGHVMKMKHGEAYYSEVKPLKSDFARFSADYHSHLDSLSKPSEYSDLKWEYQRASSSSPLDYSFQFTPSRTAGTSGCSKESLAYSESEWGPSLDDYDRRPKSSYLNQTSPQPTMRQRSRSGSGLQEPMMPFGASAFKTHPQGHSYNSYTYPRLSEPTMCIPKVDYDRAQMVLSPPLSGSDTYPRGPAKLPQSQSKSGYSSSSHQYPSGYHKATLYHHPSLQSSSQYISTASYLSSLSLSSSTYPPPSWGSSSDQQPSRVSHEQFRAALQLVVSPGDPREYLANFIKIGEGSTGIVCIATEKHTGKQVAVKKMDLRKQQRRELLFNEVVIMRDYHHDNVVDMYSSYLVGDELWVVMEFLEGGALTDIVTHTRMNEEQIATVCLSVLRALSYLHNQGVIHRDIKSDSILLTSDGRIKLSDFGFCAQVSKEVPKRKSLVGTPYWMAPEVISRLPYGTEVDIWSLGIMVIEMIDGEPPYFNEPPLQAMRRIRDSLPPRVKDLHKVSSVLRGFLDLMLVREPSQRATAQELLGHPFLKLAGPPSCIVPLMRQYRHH
Ribosomal protein S6 kinase beta-1 (Homo sapiens), sequence (P23443 whole entry, looked up): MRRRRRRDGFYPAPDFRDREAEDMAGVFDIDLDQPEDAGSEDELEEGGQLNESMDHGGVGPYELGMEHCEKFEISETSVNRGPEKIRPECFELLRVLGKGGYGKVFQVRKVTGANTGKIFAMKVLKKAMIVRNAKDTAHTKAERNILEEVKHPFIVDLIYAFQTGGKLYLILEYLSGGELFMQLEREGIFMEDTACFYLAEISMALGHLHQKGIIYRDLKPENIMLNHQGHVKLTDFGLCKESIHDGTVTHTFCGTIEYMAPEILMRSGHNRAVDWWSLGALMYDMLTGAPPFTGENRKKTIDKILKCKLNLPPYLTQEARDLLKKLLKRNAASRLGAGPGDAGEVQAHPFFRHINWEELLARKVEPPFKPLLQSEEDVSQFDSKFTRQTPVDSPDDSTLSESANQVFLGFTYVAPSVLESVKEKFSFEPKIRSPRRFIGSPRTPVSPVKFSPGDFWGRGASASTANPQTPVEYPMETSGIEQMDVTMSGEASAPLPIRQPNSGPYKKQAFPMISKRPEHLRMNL
Mitogen-activated protein kinase kinase kinase 12 (Homo sapiens), sequence (Q12852 whole entry, looked up): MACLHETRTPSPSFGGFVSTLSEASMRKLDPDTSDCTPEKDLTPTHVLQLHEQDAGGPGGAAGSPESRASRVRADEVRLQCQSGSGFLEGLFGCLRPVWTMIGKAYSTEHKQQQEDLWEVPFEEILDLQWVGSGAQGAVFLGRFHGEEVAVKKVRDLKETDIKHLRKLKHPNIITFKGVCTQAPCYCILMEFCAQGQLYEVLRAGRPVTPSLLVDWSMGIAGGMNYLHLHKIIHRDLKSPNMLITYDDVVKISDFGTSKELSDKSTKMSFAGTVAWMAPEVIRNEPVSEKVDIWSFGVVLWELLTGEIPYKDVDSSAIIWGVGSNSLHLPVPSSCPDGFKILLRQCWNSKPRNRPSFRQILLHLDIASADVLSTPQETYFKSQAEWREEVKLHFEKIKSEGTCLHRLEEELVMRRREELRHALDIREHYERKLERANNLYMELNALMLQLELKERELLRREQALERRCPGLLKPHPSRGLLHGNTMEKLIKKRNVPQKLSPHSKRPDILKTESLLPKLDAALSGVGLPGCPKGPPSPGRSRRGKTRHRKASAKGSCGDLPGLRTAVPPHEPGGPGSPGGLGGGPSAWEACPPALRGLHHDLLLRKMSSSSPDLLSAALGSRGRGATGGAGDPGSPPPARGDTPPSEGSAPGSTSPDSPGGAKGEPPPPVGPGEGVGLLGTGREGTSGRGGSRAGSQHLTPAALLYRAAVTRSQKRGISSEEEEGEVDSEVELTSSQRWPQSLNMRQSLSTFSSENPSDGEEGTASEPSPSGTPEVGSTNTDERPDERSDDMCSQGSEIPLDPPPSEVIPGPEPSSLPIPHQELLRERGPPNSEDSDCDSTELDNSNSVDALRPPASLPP
Tyrosine-protein kinase receptor UFO (Homo sapiens), sequence (P30530 whole entry): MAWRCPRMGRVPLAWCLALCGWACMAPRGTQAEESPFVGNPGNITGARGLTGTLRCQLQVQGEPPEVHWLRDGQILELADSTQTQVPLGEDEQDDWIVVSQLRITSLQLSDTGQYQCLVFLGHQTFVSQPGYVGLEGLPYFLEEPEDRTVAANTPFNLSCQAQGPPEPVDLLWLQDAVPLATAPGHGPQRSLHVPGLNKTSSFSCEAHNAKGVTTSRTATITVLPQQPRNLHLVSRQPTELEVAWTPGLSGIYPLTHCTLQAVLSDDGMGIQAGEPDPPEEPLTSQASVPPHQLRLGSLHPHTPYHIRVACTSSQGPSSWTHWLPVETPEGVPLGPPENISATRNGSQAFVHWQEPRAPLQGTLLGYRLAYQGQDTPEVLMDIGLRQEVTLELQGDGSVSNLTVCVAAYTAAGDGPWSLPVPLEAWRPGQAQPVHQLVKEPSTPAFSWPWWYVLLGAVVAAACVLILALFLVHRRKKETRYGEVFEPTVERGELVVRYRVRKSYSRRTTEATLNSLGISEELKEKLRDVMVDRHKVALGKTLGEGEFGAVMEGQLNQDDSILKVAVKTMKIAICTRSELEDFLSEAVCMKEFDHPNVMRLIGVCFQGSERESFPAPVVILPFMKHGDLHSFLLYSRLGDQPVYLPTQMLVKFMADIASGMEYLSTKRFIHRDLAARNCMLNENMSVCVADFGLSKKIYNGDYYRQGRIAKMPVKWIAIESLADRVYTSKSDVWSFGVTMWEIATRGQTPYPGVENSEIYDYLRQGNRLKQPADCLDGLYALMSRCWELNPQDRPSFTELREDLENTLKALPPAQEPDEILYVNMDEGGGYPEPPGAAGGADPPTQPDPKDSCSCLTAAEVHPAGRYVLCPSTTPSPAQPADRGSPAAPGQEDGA
Interleukin-1 receptor-associated kinase 1 (Homo sapiens), sequence (P51617 whole entry, looked up): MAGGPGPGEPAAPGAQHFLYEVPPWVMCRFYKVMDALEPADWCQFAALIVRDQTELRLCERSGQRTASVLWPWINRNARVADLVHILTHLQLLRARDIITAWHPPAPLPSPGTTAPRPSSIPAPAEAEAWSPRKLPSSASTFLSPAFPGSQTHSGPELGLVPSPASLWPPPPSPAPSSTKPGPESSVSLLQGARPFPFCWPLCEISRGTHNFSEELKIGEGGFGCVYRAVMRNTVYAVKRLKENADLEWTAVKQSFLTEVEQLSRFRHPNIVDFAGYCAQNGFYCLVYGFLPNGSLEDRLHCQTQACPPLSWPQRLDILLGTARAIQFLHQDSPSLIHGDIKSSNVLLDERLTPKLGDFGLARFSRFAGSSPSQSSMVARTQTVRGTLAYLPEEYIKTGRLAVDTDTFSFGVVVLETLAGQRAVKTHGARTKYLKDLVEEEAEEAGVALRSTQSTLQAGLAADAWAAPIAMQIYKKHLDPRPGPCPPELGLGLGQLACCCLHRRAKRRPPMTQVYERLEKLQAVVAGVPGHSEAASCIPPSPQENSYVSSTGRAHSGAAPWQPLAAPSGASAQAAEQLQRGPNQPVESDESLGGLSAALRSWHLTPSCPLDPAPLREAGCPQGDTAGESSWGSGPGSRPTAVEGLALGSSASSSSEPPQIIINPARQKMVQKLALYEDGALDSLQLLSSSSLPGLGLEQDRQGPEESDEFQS

With `COc1cc2nc(C)nc(N[C@H](C)c3cccc(-c4cn[nH]c4)c3)c2cc1OC`, the Activity in assay [1] came to 100%; in assay [2] it was 96%; in assay [3], 95%; in assay [4], 78%; in [5] it was 95%; in assay [6] it was 87%. Also, the Activity in [7] turned out to be 54%; in assay [8], 93%; in assay [9], 68%; in [10], 82%; in assay [11] it was 52%; in assay [12] it was 93%.

Regarding `COc1cc2ncnc(N[C@H](C)c3cccc4ccccc34)c2cc1OC`, the Activity came to 89% in assay [1]; 100% in assay [2]; 92% in assay [3]; 91% in assay [4]; 95% in assay [5]; 86% in assay [6]. The Activity in [7] came to 86%; in assay [8], 90%; in [9], 85%; in [10], 87%; in [11], 91%; in assay [12], 97%.
